PMC4467398, “Preclinical antitumor activity of ST7612AA1: a new oral thiol-based histone deacetylase (HDAC) inhibitor” (Oncotarget, 2014)

System: DOHH2 and TMD8 DLBCL cells
Test: Gene expression profiling (HumanHT-12 v4 BeadChip, limma), ST7612AA1 300 nM 8 hrs vs DMSO
Format: cell-based, human
Conditions: 300 nM 8 hrs vs DMSO

CC(=O)SCCCCC[C@H](NC(=O)[C@H]1CCC(=O)N1)C(=O)Nc1ccccc1 [ST7612AA1]
log ratio POGK (ILMN_1756669): -8.84E-01
log ratio POLR1C (ILMN_1746686): -8.40E-01
log ratio PPP1R13B (ILMN_1748831): 6.43E-01
log ratio PPP2R1A (ILMN_1810467): -5.99E-01
log ratio PPRC1 (ILMN_1796210): -1.03E+00
log ratio PRDM10 (ILMN_2352293): -8.83E-01
log ratio PRDX2 (probe ILMN_1767766): 8.35E-01
log ratio PRDX2 (probe ILMN_2382829): 7.41E-01
log ratio PRKAR1B (ILMN_1674390): -8.76E-01
log ratio PRKCB1 (ILMN_1806908): 6.12E-01
log ratio PRMT3 (ILMN_1662964): -1.23E+00
log ratio PSMB5 (ILMN_1744649): -9.34E-01
log ratio PSMB10 (ILMN_1683026): -8.38E-01
log ratio PSMG4 (ILMN_3224204): -5.99E-01
log ratio PTGER4 (probe ILMN_1795930): 9.03E-01
log ratio PTMS (ILMN_1721046): 6.73E-01
log ratio PTPN7 (ILMN_1715214): -6.16E-01
log ratio PTS (ILMN_2162328): -8.08E-01
log ratio PTTG1 (probe ILMN_1753196): 6.92E-01
log ratio PTTG1IP (ILMN_1802251): 6.45E-01
log ratio PTTG1IP (ILMN_2128750): 6.16E-01
log ratio PTTG3P (ILMN_2049021): 6.08E-01
log ratio QTRTD1 (ILMN_2155516): -7.99E-01
log ratio RAB8B (probe ILMN_2173004): 8.71E-01
log ratio RAB11FIP2 (ILMN_2072541): -5.92E-01
log ratio RAB11FIP5 (ILMN_1740604): 6.69E-01
log ratio RAB24 (probe ILMN_2379718): 7.77E-01
log ratio RABEPK (ILMN_1741957): -9.81E-01
log ratio RABGAP1 (probe ILMN_2061950): 6.86E-01
log ratio RAD9A (ILMN_1684183): 6.33E-01
log ratio RAN (ILMN_1757384): -8.66E-01
log ratio RAPGEF2 (probe ILMN_3247261): 8.54E-01
log ratio RASAL1 (probe ILMN_1793517): 7.10E-01
log ratio RASD2 (probe ILMN_2170209): 7.75E-01
log ratio RASGRP3 (ILMN_1727045): -9.48E-01
log ratio RASL10A (ILMN_1747673): 6.25E-01
log ratio RASSF2 (ILMN_1709683): -8.05E-01
log ratio RBM23 (ILMN_1780756): -8.92E-01
log ratio RBM23 (ILMN_2363106): -9.17E-01
log ratio RBM38 (ILMN_2404049): 6.27E-01
log ratio RCAN1 (ILMN_2367239): 6.08E-01
log ratio RCC2 (ILMN_1720124): -8.76E-01
log ratio REEP2 (probe ILMN_1666057): 6.85E-01
log ratio RFC1 (probe ILMN_2217935): 7.23E-01
log ratio RGS19 (ILMN_1677085): -9.37E-01
log ratio RHBDD2 (probe ILMN_1809437): 7.80E-01
log ratio RHBDD2 (probe ILMN_2406410): 8.04E-01
log ratio RHOBTB3 (probe ILMN_1744949): 8.25E-01
log ratio RHOC (probe ILMN_1673305): 9.02E-01
log ratio RIOK3 (ILMN_2404135): 5.99E-01
log ratio RNASE4 (probe ILMN_1776602): 7.33E-01
log ratio RND2 (probe ILMN_1736533): 7.06E-01
log ratio RNF24 (probe ILMN_1717809): 7.24E-01
log ratio RNF135 (ILMN_1700660): -6.19E-01
log ratio RNFT2 (ILMN_3299905): 6.00E-01
log ratio RPIA (ILMN_1714809): -9.23E-01
log ratio RPL29 (ILMN_1737517): -1.05E+00
log ratio RPL29 (ILMN_1771051): -1.03E+00
log ratio RPL36A (ILMN_2112811): -6.12E-01
log ratio RPP40 (ILMN_1810423): -1.07E+00
log ratio RPRD2 (ILMN_3238889): -7.98E-01
log ratio RPS6KA4 (ILMN_1756204): -7.98E-01
log ratio RRBP1 (ILMN_2360784): 6.39E-01
log ratio RRS1 (ILMN_1767658): -7.92E-01
log ratio RTN2 (probe ILMN_1749115): 8.60E-01
log ratio RTN3 (probe ILMN_2363065): 7.08E-01
log ratio S100A4 (ILMN_1688780): 6.50E-01
log ratio SALL2 (ILMN_1740842): 6.64E-01
log ratio SBK1 (probe ILMN_1728298): 8.80E-01
log ratio SCARNA11 (probe ILMN_3236010): 6.95E-01
log ratio SCARNA13 (probe ILMN_3235325): 7.18E-01
log ratio SCARNA14 (probe ILMN_3247636): 7.31E-01
log ratio SCARNA23 (ILMN_3243966): 6.49E-01
log ratio SCD5 (ILMN_2237428): 6.35E-01
log ratio SDCBP (probe ILMN_2363586): 8.86E-01
log ratio SDCBP (probe ILMN_2363591): 8.22E-01
log ratio SDHA (ILMN_1744210): 6.20E-01
log ratio SDHAP2 (probe ILMN_3248781): 7.07E-01
log ratio SEMA4D (probe ILMN_1687533): 7.86E-01
log ratio SEMA4F (probe ILMN_1805007): 7.51E-01
log ratio SENP6 (ILMN_2054233): -8.91E-01
log ratio SEPHS1 (ILMN_1673369): -1.31E+00
log ratio SEPHS1 (ILMN_2176768): -1.36E+00
log ratio SEPHS2 (ILMN_1687824): 6.78E-01
log ratio SERPINB9 (probe ILMN_1742052): 7.55E-01
log ratio SERPINI1 (probe ILMN_1814333): 7.79E-01
log ratio SESN1 (ILMN_1800626): 5.92E-01
log ratio SETMAR (ILMN_1682404): -7.84E-01
log ratio SFRS7 (ILMN_1778836): -6.07E-01
log ratio SFXN4 (ILMN_2363361): -9.20E-01
log ratio SGK (probe ILMN_1702487): 8.82E-01
log ratio SGSH (ILMN_2133675): 5.92E-01
log ratio SH3GLB2 (probe ILMN_2158336): 6.85E-01
log ratio SLC5A6 (ILMN_1741054): -9.72E-01
log ratio SLC7A1 (ILMN_1683859): -6.20E-01
log ratio SLC23A2 (probe ILMN_1746578): 7.82E-01
log ratio SLC25A4 (probe ILMN_1681670): 8.53E-01
log ratio SLC25A4 (probe ILMN_2211780): 7.98E-01
log ratio SLC25A13 (ILMN_1668012): -8.15E-01
log ratio SLC25A23 (probe ILMN_1679949): 7.04E-01
log ratio SLC35F2 (ILMN_2075189): -9.03E-01
log ratio SLC38A1 (ILMN_1769911): -9.30E-01
log ratio SLC38A5 (ILMN_1695058): -1.13E+00
log ratio SLC39A3 (ILMN_2234970): 6.58E-01
log ratio SLC39A10 (ILMN_1656129): -5.93E-01
log ratio SLC43A3 (ILMN_1658407): -9.67E-01
log ratio SLC43A3 (ILMN_2330307): -8.92E-01
log ratio SLC44A2 (probe ILMN_1771987): 7.92E-01
log ratio SLC45A3 (probe ILMN_1726114): 7.11E-01
log ratio SLFN11 (ILMN_2162860): 6.41E-01
log ratio SLFN11 (probe ILMN_1752520): 7.62E-01
log ratio SLTM (ILMN_1742224): -9.17E-01
log ratio SLTM (ILMN_2395204): -8.02E-01
log ratio SMG5 (ILMN_2126239): -9.35E-01
log ratio SNAP23 (probe ILMN_1687519): 8.74E-01
log ratio SNHG3-RCC1 (ILMN_1707493): -9.37E-01
log ratio SNORA76 (ILMN_3237562): -5.92E-01
log ratio SNORA80 (ILMN_3238554): 6.42E-01
log ratio SNORD31 (probe ILMN_2072391): 7.85E-01
log ratio SNORD65 (ILMN_3246353): -8.36E-01
log ratio SNUPN (ILMN_1733932): -7.98E-01
log ratio SNUPN (ILMN_2364535): -8.42E-01
log ratio SNX29 (ILMN_1659761): 6.78E-01
log ratio SORT1 (probe ILMN_1707077): 8.42E-01
log ratio SPAG1 (ILMN_2367681): 5.96E-01
log ratio SPAG7 (ILMN_1684446): -8.14E-01
log ratio SPAG9 (ILMN_1799104): 6.26E-01
log ratio SPAG9 (probe ILMN_2263718): 7.33E-01
log ratio SPI1 (ILMN_2392043): -6.03E-01
log ratio SPINT2 (probe ILMN_1800739): 8.11E-01
log ratio SPRY1 (ILMN_2329914): 6.03E-01
log ratio SREBF1 (probe ILMN_1663035): 7.22E-01
log ratio SRGN (probe ILMN_1760347): 7.62E-01
log ratio SRGN (probe ILMN_2169152): 7.60E-01
log ratio SRP72 (ILMN_1683888): -5.90E-01
log ratio SSPN (ILMN_1775486): -1.34E+00
log ratio STAG2 (ILMN_1782609): -9.17E-01
log ratio STARD10 (probe ILMN_1717052): 8.01E-01
log ratio STK17B (probe ILMN_1798543): 7.91E-01
log ratio STMN3 (probe ILMN_3244117): 9.01E-01
log ratio STX3 (probe ILMN_1659544): 8.71E-01
log ratio SUMO3 (ILMN_1725642): -9.81E-01
log ratio SUSD3 (probe ILMN_1785570): 8.58E-01
log ratio SYNGR1 (ILMN_1810875): 6.25E-01
log ratio TACC1 (probe ILMN_1770084): 7.64E-01
log ratio TACO1 (ILMN_1685112): -6.19E-01
log ratio TADA1L (ILMN_1776487): -6.14E-01
log ratio TANK (probe ILMN_1715069): 8.21E-01
log ratio TBC1D7 (probe ILMN_1661622): 7.33E-01
log ratio TBC1D16 (probe ILMN_1758457): 7.24E-01
